Source: patent US11220491B2, “Photoprotective compositions containing Malassezia-derived compounds and/or chemical analogs thereof” (Versicolor Technologies, LLC, priority 2018, dated 2022)
Entries after “also recorded” stand apart in the source; their conditions may differ. Read-outs that look alike come from different tables or passages of the source. One block for each compound: values may come before it.

What was measured:
MelanoDerm™ Skin Model [1] = experiment: MelanoDerm Study 2, melanin assay (Example 19); assay type: cell-based, human; conditions: 500 μM, 7-day period
Procedure: The study also evaluated the potential dermal irritation induced by each test article as measured by the conversion of MTT by MelanoDerm™ tissues after repeated exposures to the test articles, over the 7 day treatment period.
The test articles, Malassezin (CV-8684), Compound B (CV-8877), Compound E (AB12508), Compound H (AB12509), an unknown composition, Compound A5 (CV-8819), and 052 (AB12976), were prepared by diluting the stock concentrations with EPI-100-LLMM to final concentrations of 200 μM and 500 μM. The test article, Compound I (CV-8686), was prepared by diluting the stock concentration to 500 μM. All of the dilutions were vortexed for at least 1 minute, and then heated in a water bath at 37°±1° C. for 15 minutes. The dilutions were then vortexed again for at least 1 minute prior to being dosed on the tissues. The test article and solvent control, DMSO, was prepared as a 0.5% (v/v) dilution in EPI-100-LLMM. The test article dilution was vortexed for at least 1 minute and then again for at least 1 minute prior to being applied onto the tissues. […]
The raw absorbance data were captured. The OD490 value of each melanin standard was determined. […] The corrected OD490 value of each melanin standard concentration was determined by subtracting the OD490 value of the blank well from the OD490 value of the melanin standard concentration. […]

[2] = target: T1, arylhydrocarbon receptor (AhR) (Homo sapiens, UniProt P35869); experiment: HepG2-AhR-Luciferase assay; conditions: EC50 (uM), 24 hours of treatment
T1 sequence (P35869 11-848): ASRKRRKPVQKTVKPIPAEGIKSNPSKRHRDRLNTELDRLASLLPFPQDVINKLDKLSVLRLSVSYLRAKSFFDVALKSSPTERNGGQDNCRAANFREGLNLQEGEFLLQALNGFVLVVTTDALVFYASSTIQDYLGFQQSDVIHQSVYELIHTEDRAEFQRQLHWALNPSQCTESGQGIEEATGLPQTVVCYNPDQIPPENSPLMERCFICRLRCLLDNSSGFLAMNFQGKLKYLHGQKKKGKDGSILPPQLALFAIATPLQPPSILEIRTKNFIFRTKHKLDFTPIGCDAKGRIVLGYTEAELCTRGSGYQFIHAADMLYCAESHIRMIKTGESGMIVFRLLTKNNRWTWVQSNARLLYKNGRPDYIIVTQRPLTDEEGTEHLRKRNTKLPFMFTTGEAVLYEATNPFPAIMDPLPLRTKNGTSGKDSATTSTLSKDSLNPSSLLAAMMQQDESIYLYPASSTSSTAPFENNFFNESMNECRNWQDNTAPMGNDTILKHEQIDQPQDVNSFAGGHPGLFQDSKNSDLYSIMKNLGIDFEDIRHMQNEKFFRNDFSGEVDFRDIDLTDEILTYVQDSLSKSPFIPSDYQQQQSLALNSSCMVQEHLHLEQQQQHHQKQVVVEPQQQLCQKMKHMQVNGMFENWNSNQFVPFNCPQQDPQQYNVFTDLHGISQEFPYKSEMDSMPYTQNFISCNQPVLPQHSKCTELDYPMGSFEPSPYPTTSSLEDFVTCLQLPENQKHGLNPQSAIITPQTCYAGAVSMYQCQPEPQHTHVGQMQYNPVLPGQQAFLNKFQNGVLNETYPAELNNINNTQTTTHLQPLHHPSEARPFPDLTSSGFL
Procedure: HepG2-AhR-Luc cells were purchased from Pharmaron, One-Glo Luciferase assay system was purchased from Promega. DMEM was purchased from Hyclone, and penicillin/streptomycin was purchased from Solabio.
Culture media for stably transfected HepG2 cells was prepared by supplementing DMEM with high glucose and L-glutamine, as well as 10% FBS.
HepG2-AhR-Luc cells were cultured in T-75 flasks at 37° C., 5% CO2, and 95% relative humidity. Cells were allowed to reach 80-90% confluence before detachment and splitting.
Cultivated cells were rinsed with 5 mL PBS. PBS was aspirated away, 1.5 mL trypsin was added to the flask, and cells were incubated at 37° C. for approximately 5 minutes or until the cells detached and floated. Trypsin was inactivated by adding excess serum-containing media.
The cell suspension was transferred to a conical tube and centrifuged at 120 g for 10 minutes to pellet the cells. Cells were resuspended in seeding media at a proper density. 40 μL of cells were transferred to a 384-well culture plate (5×10^3 cells/well). Plates were placed in the incubator at 37° C. for 24 hours.
Afterward, stock solutions of test compounds and omeprazole positive control were prepared. Compound solutions were transferred into the assay plate using Echo550. The plate was then placed back into the incubator for compound treatment.
Later, after 24 hours of treatment, the plate was removed from the incubator and allowed to cool at ambient temperature. 30 μL One-Glo reagent equal to that of the culture medium was added in each well. Cells were allowed to lyse for at least 3 minutes, and then measured in a luminometer.
Dose responses were graphed using the non-linear regression analysis in XLfit and EC50 values were also calculated.

MelanoDerm™ Skin Model [3] = experiment: MelanoDerm assay, pigmentation of tissues (Example 12); assay type: cell-based, human; conditions: day 7; 200 μM and 50 μM
Procedure: The MelanoDerm™ Skin Model will be exposed to the test article for a total of 7 days. […] (Berridge et al., 1996).
Ten and 25 microliters, respectively, of each test article will be applied to each tissue. Twenty five microliters of the positive and negative controls, respectively, will be applied to each tissue.
The definitive assay will include a negative control and a positive control. The MelanoDerm™ tissues designated to the assay negative control will be treated with 25 μL of sterile, deionized water. Twenty five microliters of 1% Kojic acid (prepared in sterile, deionized water and filtered at the time of preparation) will be used to dose the tissues designated to the assay positive control. The 1% Kojic acid will be stored in a tube covered with aluminum foil until used within 2 hours of preparation. The negative and positive control exposure times will be identical to those used for the test articles.
The exact procedures used to collect images of the tissues will be specified in the study workbook and report.
The trial will be conducted over a 7-day timeframe.
The exact procedures used to collect images of the tissues will be specified in the study workbook and report. Then, the viability of the tissues will be determined by MTT reduction as indicated below.

B16F1 cells = experiment: Annexin V assay (Example 16); assay type: cell-based; conditions: 100 uM
Procedure: (§1) Cells were harvested and the cell number was determined using a Countess Cell Counter. The cells were diluted with culture medium to the desired density.
(§2) Test compounds were dissolved in DMSO to 30 mM stock. […] After the indicated incubation time, the plates were removed from the incubator for detection.
(§3) For the Annexin V assay, plates were removed from the incubator and culture media was removed. […] Plates were read using ImageXpress Nano.

MeWo cells [4] = experiment: Annexin V assay (Example 16); assay type: cell-based; conditions: 100 uM
Procedure: as §1, §2, §3

WM115 cells [5] = experiment: Annexin V assay (Example 16); assay type: cell-based; conditions: 100 uM
Procedure: as §1, §2, §3

[6] = tested on: Caspase 3/7 in MeWo cells; experiment: Caspase-Glo 3/7 assay (Example 16); assay type: cell-based; conditions: 100 uM
Procedure: as §1, §2
(§4) Caspase-Glo 3/7 reagents also were thawed and equilibrated to room temperature before the experiment.

[7] = tested on: Caspase 3/7 in WM115 cells; experiment: Caspase-Glo 3/7 assay (Example 16); assay type: cell-based; conditions: 100 uM
Procedure: as §1, §2, §4

[8] = tested on: UV-induced erythema of the subject's skin; experiment: In vivo photoprotection proof of concept, UVB irradiation of treated skin sites (Example 38); design: species or system human
Description: The Malassezin 1% formulation used in this study contained the following ingredients: Water (aqua)—65.939%; Dimethyl isosorbide—20.000%; Olive Oil Glycereth-8 Esters—3.000%; Glycerin—2.991%; Coconut Alkanes—2.700%; Hydroxyethyl Acrylate/Sodium Acryloyldimethyl Taurate Copolymer—1.700%; Malassezin—1.000%; Pentylene Glycol—1.000%; Phenoxyethanol—0.640%; Coco-Caprylate/Caprate—0.300%; Caprylyl Glycol—0.200%; Chlorphenesin—0.160%; Sorbitan Isostearate—0.140%; Tocopherol—0.100%; Polysorbate 60-0.080%; and Disodium EDTA—0.050%.
A Skin Type IV […] was included in this Proof of Concept study.
A template of 6 squares was placed on the lower left back (1.5 cm×1.5 cm) of the test subject.
Twenty-four hours after irradiation, the subject returned for MED assessment.
A second right lower square was treated twice daily from day 4 to day 7, and a third medial square for one application on day 7. The product vehicle was applied for 7 days twice daily on the left back. The subject returned to the research center for irradiation on day 7. Each test site was irradiated with 120 mJ of UVB exposure. The subject returned in 24 hours for assessment of phototoxicity/photoprotection.
The subject continued the experiment, receiving Malassezin 1% for a total of 14 days. […]

[9] = tested on: primary human melanocytes; conditions: cited from earlier work
[10] = target: T1, arylhydrocarbon receptor (AhR); design: HepG2 cells stably transfected with an AhR-responsive luciferase reporter gene plasmid; host or cells: HepG2-AhR-Luc (HepG2 stably transfected with an AhR-responsive luciferase reporter plasmid); conditions: cited from earlier work
MeWo cells [11] = experiment: Preliminary annexin V-FITC assay (Example 7); assay type: cell-based; conditions: 6-hour treatment, preliminary screen
Procedure: (§5) MeWo (ATCC® HTB-65™) and WM115 (ATCC® CRL-1675) cells were purchased from ATCC (Manassas, Va.) and maintained in the following: for MeWo:DMEM supplemented with 10% FBS; for WM115: RPMI 1640 supplemented with 10% FBS (10% FBS, 1% stabilized antibiotic anti-mycotic solution).
(§6) During the first set of studies, both MeWo and WM115 cells were treated with test compounds at 10 doses starting from 100 μM with 3-fold dilution. Staurosporine was used as positive control. After 6-hour treatment, cell apoptosis was assessed using an annexin V assay. The test compounds evaluated were CV-8684, CV-8685, CV-8686, CV-8687, and CV-8688.
(§7) For cell seeding, cells were harvested and the cell number was determined using Countess® cell counter. Cells were then diluted with culture medium to the desired density. 40 μL of cell suspension per well was added to the required number of wells in a 384-well plate (Corning 3712—clear bottom plate). The final cell density was 6,000 cells/well. After plating, the plates were incubated at 37° C., and 5% CO2 overnight.
(§8) For preparation of compound source plate, each test compound was dissolved in DMSO to 10 mM stock. 3-fold serial dilution was performed using an EVO200™ liquid handler (TECAN) to generate ten concentrations of test compound. 0.1% DMSO was employed as vehicle (negative) control. The compound source plate was then spun at room temperature at 1,000 RPM for 1 minute and agitated using a plate shaker for 2 minutes.
(§9) For compound treatment, 40 nL of compound were transferred from the compound source plate to the 384-well culture plate using liquid handler Echo550 (LabCyte Inc.). After 6-hour incubation, the plates were removed from the incubator for detection.
(§10) For the preliminary annexin V assay, the plates were removed from the incubator and allowed to equilibrate at room temperature for 15 minutes. Culture media was then removed. 20 μL of pre-mixed annexin V-FITC and Hoechst33342 dye working solution were added to each well. The cells were then incubated at room temperature for 20 minutes. […] Afterward, the plate was read using an Acumen eX3 plate reader. The relative activity was calculated according to the following formula: Activity (%)=100%×(CountAnnexin V/CountTotal cell), and EC50 was calculated using GraphPad Prism (v. 5.01).

WM115 cells [12] = experiment: Preliminary annexin V-FITC assay (Example 7); assay type: cell-based; conditions: 6-hour treatment, preliminary screen
Procedure: as §5, §6, §7, §8, §9, §10

[13] = CellTiter-Glo cell viability assay (Example 9); assay type: cell-based; conditions: human; after 24-hour treatment; read-out: inhibition of cell viability
Procedure: (§11) CellTiter-Glo® 2.0 assay was purchased from Promega. Cell seeding, preparation of the compound source plate, and exposure of cells to test compounds were performed as described in Example 8.
(§12) CellTiter-Glo® reagents were thawed and equilibrated to room temperature before the experiment. 40 μL of CellTiter-Glo® reagent was then added to each well for detection (at 1:1 ratio to culture medium). The plates were then incubated at room temperature for 30 minutes and read using EnSpire (PerkinElmer) plate reader. The remaining activity was calculated according to the following formula: Remaining Activity (%)=100%×(Lumsample−Lumbkg)/(Lumvehicle−Lumbkg).

[14] = CellTiter-Glo cell viability assay (Example 9); assay type: cell-based; conditions: human; after 24-hour treatment; read-out: inhibition of cell viability; remark: listed apart in the source
Procedure: as §11, §12

MeWo cells [15] = experiment: Cell morphology after treatment (Example 6); assay type: cell-based; conditions: 100 μM, 6 hours
WM115 cells [16] = experiment: Cell morphology after treatment (Example 6); assay type: cell-based; conditions: 100 μM, 6 hours
yeast model = conditions: cited from earlier work

- EC50 ([2]; Table 1): 15.4 µM
- EC50 ([2]; Table 2): 14.2 µM
SMILES: O=Cc1c(C(c2c[nH]c3ccccc23)C2CC2)[nH]c2ccccc12 (stereo not shown) [AB12508]
- melanin concentration (MelanoDerm™ Skin Model [1]): 25.26 µg/mL

- EC50 ([2]; Table 2): 13.8 µM
SMILES: COC(=O)c1c(C(C)c2c[nH]c3ccccc23)[nH]c2ccccc12 (stereo not shown) [Compound B (CV-8877)]
- melanin concentration (MelanoDerm™ Skin Model [1]): 25.99 µg/mL

- EC50 ([2]; Table 2): 13.4 µM
SMILES: O=Cc1c(Cc2c[nH]c3ccccc23)[nH]c2ccccc12 [Malassezin, malassezin]
- pigmentation of tissues (MelanoDerm™ Skin Model [3]): reduced pigmentation
- cell death (Annexin V staining) (B16F1 cells): induced cell death
- cell death (Annexin V staining) (MeWo cells [4]): induced cell death
- cell death (Annexin V staining) (WM115 cells [5]): induced cell death
- Caspase 3/7 activation [6]: activated Caspase 3/7
- Caspase 3/7 activation [7]: activated Caspase 3/7
- UV protection, conclusion of the study [8]: UV-protective properties
- apoptosis induction [9]: induces apoptosis
- AhR agonism [10]: known agonist; also recorded: aryl hydrocarbon receptor agonist

SMILES: CN[C@@H]1C[C@H]2O[C@@](C)([C@@H]1OC)n1c3ccccc3c3c4c(c5c6ccccc6n2c5c31)C(=O)NC4 [Staurosporine, reference compound]
- annexin V staining (MeWo cells [11]): greatly increased annexin V staining
- annexin V staining (WM115 cells [12]): greatly increased annexin V staining
- cytotoxicity at 24 h [13]: 100%
- cytotoxicity at 24 h [14]: 100%
- cell morphology (MeWo cells [15]): significantly affected
- cell morphology (WM115 cells [16]): significantly affected

SMILES: O=C1OC(c2c[nH]c3ccccc23)=C(c2c[nH]c3ccccc23)C1=O [pityrialactone, Pityrialactone]
- UV protective properties (yeast model): confirmed
